The target in experiment [1] is T1, PLD1 (Homo sapiens (Human), UniProt Q13393). Nature of the experiment: Cellular CRCs: PLD1 response in Calu-1 cells. Type of experiment: cell-based. The text has this: In some aspects PLD activity in the cell is mediated predominately by PLD1. Thus, in some aspects, the cell is the human non-small-cell lung cancer (NSCLC) cell line Calu-1. In some aspects, the cell has been stimulated to activate PLD1 in the cell. For example, the cell can be stimulated with phorbol 12-myristate 13-acetate (PMA).
T1 sequence (Q13393 whole entry): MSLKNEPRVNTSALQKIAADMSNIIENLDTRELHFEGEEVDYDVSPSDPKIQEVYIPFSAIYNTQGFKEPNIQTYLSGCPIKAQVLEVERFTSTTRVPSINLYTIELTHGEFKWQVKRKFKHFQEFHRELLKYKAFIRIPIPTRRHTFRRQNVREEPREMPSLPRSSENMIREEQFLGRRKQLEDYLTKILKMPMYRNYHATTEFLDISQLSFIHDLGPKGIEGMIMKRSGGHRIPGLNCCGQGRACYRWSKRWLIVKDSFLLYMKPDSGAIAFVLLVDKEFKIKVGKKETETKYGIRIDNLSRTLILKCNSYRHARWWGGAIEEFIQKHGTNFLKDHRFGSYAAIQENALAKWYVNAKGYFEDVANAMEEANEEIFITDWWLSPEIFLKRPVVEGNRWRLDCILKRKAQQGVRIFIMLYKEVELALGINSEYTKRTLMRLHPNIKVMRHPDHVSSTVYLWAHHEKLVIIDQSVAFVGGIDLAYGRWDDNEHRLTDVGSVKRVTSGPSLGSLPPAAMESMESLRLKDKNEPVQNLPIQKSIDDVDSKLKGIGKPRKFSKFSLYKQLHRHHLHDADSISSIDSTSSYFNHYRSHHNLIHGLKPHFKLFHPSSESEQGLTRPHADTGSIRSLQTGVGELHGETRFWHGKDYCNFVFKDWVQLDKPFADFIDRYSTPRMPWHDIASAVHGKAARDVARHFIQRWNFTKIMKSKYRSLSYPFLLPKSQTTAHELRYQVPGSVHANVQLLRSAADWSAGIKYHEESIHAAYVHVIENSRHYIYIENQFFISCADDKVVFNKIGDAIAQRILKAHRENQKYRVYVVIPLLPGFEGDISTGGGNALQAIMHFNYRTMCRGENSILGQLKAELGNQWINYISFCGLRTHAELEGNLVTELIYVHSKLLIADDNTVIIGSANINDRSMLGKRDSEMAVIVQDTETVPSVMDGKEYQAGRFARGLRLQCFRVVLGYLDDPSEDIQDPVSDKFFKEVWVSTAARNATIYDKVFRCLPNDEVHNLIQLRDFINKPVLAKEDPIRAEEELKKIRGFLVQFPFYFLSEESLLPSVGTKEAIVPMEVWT

Experiment [2] addresses T1, PLD1. Kind of experiment: Exogenous CRCs: in vitro PLD1 response. The format is biochemical. From the text:
(§1) The screening method can comprise providing a sample comprising a phosholipid and a PLD under conditions that allow the hydrolysis of the phospholipids to a phosphatidic acid, contacting the sample with a candidate agent, measuring enzymatic activity, comparing the enzymatic activity to a control, a decrease in enzymatic activity compared to the control identifying an agent that inhibits the PLD.
(§2) In some aspects, the PLD is a myr-Aff-1-stimulated mammalian human PLD1 or human PLD2.

The target of experiment [3] is T2, PLD2 (Homo sapiens (Human), UniProt O14939). Kind of experiment: Exogenous CRCs: in vitro PLD2 response. The format is biochemical.
T2 sequence (O14939 whole entry): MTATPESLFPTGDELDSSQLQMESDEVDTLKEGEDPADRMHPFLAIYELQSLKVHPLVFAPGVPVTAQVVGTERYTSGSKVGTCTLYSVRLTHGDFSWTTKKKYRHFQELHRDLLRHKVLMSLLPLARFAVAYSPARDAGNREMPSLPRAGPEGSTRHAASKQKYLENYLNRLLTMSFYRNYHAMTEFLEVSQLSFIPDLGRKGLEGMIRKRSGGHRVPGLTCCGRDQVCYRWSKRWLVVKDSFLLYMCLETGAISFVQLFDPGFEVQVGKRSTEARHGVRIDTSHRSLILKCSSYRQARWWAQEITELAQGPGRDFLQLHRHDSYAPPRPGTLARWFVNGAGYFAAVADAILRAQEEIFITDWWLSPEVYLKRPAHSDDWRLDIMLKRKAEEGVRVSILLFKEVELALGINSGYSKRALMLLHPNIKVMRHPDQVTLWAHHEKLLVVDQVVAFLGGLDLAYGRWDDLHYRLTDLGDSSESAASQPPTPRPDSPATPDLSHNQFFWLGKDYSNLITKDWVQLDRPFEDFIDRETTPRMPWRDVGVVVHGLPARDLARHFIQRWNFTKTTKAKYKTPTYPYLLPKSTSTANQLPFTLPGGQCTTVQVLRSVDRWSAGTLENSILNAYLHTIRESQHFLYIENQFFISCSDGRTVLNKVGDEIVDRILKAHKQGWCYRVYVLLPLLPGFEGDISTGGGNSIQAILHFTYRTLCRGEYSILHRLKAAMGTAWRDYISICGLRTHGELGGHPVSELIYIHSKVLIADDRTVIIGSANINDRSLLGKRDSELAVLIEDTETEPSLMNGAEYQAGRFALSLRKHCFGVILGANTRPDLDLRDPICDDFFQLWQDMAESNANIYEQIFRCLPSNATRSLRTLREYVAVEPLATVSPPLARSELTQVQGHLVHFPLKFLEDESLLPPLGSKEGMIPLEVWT
Text: as §1, §2

For experiment [4], the target named is T2, PLD2. Nature of the experiment: Cellular CRCs: PLD2 response in HEK293gfpPLD2 (293-PLD2) cells. Type of experiment: cell-based. Conditions: for Fold Selective: cellular CRCs, selectivity for PLD2 (293-PLD2) over PLD1 (Calu-1). The text has this: In some aspects PLD activity in the cell is mediated predominately by PLD2. Thus, in some aspects, the cell stably overexpresses recombinant PLD2. For example, the cell can be a HEK293 cell stably overexpressing green florescent protein (GFP)-tagged PLD2.

Setting [5] is: Calu-1 cells (PLD1), read-out: Cellular CRCs Calu-1 IC50.
The mark [6] stands for this setting: exogenous (in vitro) PLD2, read-out: Exogenous CRCs PLD2 IC50.
Setting [7] is: HEK293 cells overexpressing GFP-tagged PLD2, read-out: Cellular CRCs 293-PLD2 IC50.

As usually defined, the IC50 is the midpoint of a concentration-inhibition curve.

Consider “4-fluoro-N-((S)-1- ((S)-4-(4- fluorophenyl)-1-oxo- 2,8- diazaspiro[4.5]decan- 8-yl)propan-2- yl)benzamide 2,2,2- trifluoroacetate [P2B]”, for which the IC50 on PLD1 [1] (setting [5]) came out at 1700 nM; against PLD1 [2] it was 5150 nM; on PLD2 [3] (setting [6]), 9440 nM; at PLD2 [4] (setting [7]), 2800 nM.
Regarding `C[C@@H](CN1CCC2(CC1)C(=O)NC[C@H]2c1ccc(F)cc1)NC(=O)c1cc2ccccc2[nH]1` [NG3, N-((S)-1-((S)-4-(4-fluorophenyl)-1-oxo-2,8-diazaspiro[4.5]decan-8-yl)propan-2-yl)-1H-indole-2-carboxamide 2,2,2-trifluoroacetate], the half-inhibitory concentration (IC50) at PLD1 [1] (setting [5]) stood at 16 nM; against PLD2 [4], 140 nM.
As for `C[C@@H](CN1CCC2(CC1)C(=O)NC[C@@H]2c1ccc(F)cc1)NC(=O)C#Cc1ccccc1` [NGF, N—((S)-1-((R)-4-(4-Fluorophenyl)-1-oxo-2,8-diazaspiro[4.5]decan-8-yl)propan-2-yl)-3-phenylpropiolamide 2,2,2-trifluoroacetate], the 50% inhibitory concentration (IC50) was found to be 16 nM at PLD1 [1] (setting [5]) and 150 nM on PLD2 [4].
As for `C[C@@H](CN1CCC2(CC1)C(=O)NC[C@@H]2c1ccc(F)cc1)NC(=O)c1ccc(F)cc1` [NGH, 4-fluoro-N-((S)-1-((R)-4-(4-fluorophenyl)-1-oxo-2,8-diazaspiro[4.5]deean-8-yl)propan-2-yl)benzamide 2,2,2-txifluoroacetate], the concentration for half-maximal inhibition (IC50) worked out at 250 nM against PLD1 [1], 2240 nM against PLD2 [3] and 210 nM against PLD2 [4].
For `C[C@@H](CN1CCC2(CC1)C(=O)NCC2c1ccc(F)cc1)NC(=O)C1C[C@H]1c1ccccc1` (stereo partly drawn) [NGQ, trans-N-((S)-1-((S)-4-(4-fluorophenyl)-1-oxo-2,8-diazaspiro[4.5]decan-8-yl)propan-2-yl)-2-phenylcyclopropane-carboxamide 2,2,2-trifluoroacetate], the IC50 on PLD1 [1] (setting [5]) is 3000 nM; at PLD2 [4] (setting [7]), greater than 20000 nM.
Consider `C[C@@H](CN1CCC2(CC1)C(=O)NC[C@H]2c1ccc(F)cc1)NC(=O)C#Cc1ccccc1` [NJ5, N-((S)-1-((S)-4-(4-fluorophenyl)-1-oxo-2,8-diazaspiro[4.5]decan-8-yl)propan-2-yl)-3-phenylpropiolamide 2,2,2-trifluoroacetate], for which the half-inhibitory concentration (IC50) turned out to be 320 nM at PLD1 [1] (setting [5]) and 4000 nM at PLD2 [4].
Regarding `C[C@@H](CN1CCC2(CC1)C(=O)NC[C@@H]2c1ccc(F)cc1)NC(=O)C1C[C@H]1c1ccccc1` (stereo partly drawn) [P0A, trans-N-((S)-1-((R)-4-(4-fluorophenyl)-1-oxo-2,8-diazaspiro[4.5]decan-8-yl)propan-2-yl)-2-phenylcyclopropane-carboxamide 2,2,2-trifluoroacetate], the IC50 at PLD1 [1] (setting [5]) was found to be 600 nM; on PLD2 [4] (setting [7]) it was 14000 nM.
`O=C(C#Cc1ccccc1)NCCN1CCC2(CC1)C(=O)NC[C@@H]2c1ccc(F)cc1.O=C(O)C(F)(F)F` [P0Q, (R)-N-(2-(4-(4-fluorophenyl)-1-oxo-2,8-diazaspiro[4.5]decan-8-yl)ethyl)-3-phenylpropiolamide 2,2,2-trifluoroacetate] returned an IC50 on PLD1 [1] of 1200 nM. Besides, on PLD2 [4], it took 70 nM to reach half-maximal inhibition (IC50) and the “Fold Selective” value is recorded as 17-fold PLD2.
Regarding `O=C(NCCN1CCC2(CC1)C(=O)NC[C@H]2c1ccc(F)cc1)c1ccc2ccccc2c1.O=C(O)C(F)(F)F` [P1D], the half-inhibitory concentration (IC50) at PLD1 [1] (setting [5]) was found to be 3700 nM; at PLD2 [4] (setting [7]), 220 nM. Further, the “Fold Selective” value on PLD2 [4] is reported as 17-Fol PLD2 fold.
On the same counts, the results for `O=C(NCCN1CCC2(CC1)C(=O)NC[C@@H]2c1ccc(F)cc1)C1C[C@H]1c1ccccc1.O=C(O)C(F)(F)F` (stereo partly drawn) [P1E, trans-N-(2-((R)-4-(4-fluorophenyl)-1-oxo-2,8-diazaspiro[4.5]decan-8-yl)ethyl)-2-phenylcyclopropane-carboxamide 2,2,2-trifluoroacetate] are 6100 nM, 760 nM and 8-fold PLD2.
On to `C[C@@H](CN1CCC2(CC1)C(=O)NC[C@@H]2c1ccc(F)cc1)NC(=O)c1cc2ccccc2[nH]1` [P1G, N-((S)-l-((R)-4-(4-fluorophenyl)-1-oxo-2,8-diazaspiro[4.5]decan-8-yl)propan-2-yl)-1H-indole-2-carboxamide 2,2,2-trifluoroacetate], for which the half-maximal inhibitory concentration (IC50) against PLD1 [1] worked out at 1 nM; on PLD2 [4], 12 nM.
As for `C[C@@H](CN1CCC2(CC1)C(=O)NC[C@H]2c1ccc(F)cc1)NC(=O)c1ccc2ccccc2c1` [P1Q, N-((S)-1-((S)-4-(4-fluorophenyl)-1-oxo-2,8-diazaspiro[4.5]decan-8-yl)propan-2-yl)-2-naphthamide 2,2,2-trifluoroacetate], the 50% inhibitory concentration (IC50) came out at 93 nM at PLD1 [1] (setting [5]) and 540 nM at PLD2 [4] (setting [7]).
For `O=C(NCCN1CCC2(CC1)C(=O)NC[C@H]2c1ccc(F)cc1)c1ccc2ccccc2c1.O=C(O)C(F)(F)F` [P22, (S)-N-(2-(4-(4-fluorophenyl)-1-oxo-2,8-diazaspiro[4.5]decan-8-yl)ethyl)-2-naphthamide 2,2,2-trifluoroacetate], the IC50 turned out to be 820 nM at PLD1 [1] (setting [5]), 3900 nM against PLD1 [2], 73 nM on PLD2 [3] (setting [6]) and 26 nM at PLD2 [4] (setting [7]). Further, on PLD2 [4] (trifluoroacetate), the “Fold Selective” value was 32-fold PLD2.
On to `O=C(NCCN1CCC2(CC1)C(=O)NC[C@@H]2c1ccc(F)cc1)c1cc2ccccc2[nH]1.O=C(O)C(F)(F)F` [P23, (R)-N-(2-(4-(4-fluorophenyl)-1-oxo-2,8-diazaspiro[4.5]decan-8-yl)ethyl)-1H-indole-2-carboxamide 2,2,2-trifluoroacetate], for which the IC50 against PLD1 [1] was 21 nM. On PLD2 [4], the 50% inhibitory concentration (IC50) was 2.5 nM and the “Fold Selective” value was 8 fold PLD2.

The values above are taken from patent US9127005B2, “Isoform selective phospholipase D inhibitors” (Vanderbilt University, priority 2009, dated 2015).
